From PubChem BioAssay (NCI)
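Briefly, cells in 96-well plates were exposed to five compound concentrations for 48 h, and endpoints were estimated by linear interpolation. GI50 marks 50% less growth. The concentration for full growth arrest is given as TGI.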

Legend:
Test in all cases: inhibition of tumour cell growth, NCI panel, 48 h
COLO 205 colon = test system: COLO 205 colon
SF-539 CNS = test system: SF-539 CNS
RPMI-8226 leukemia = test system: RPMI-8226 leukemia
HCT-15 colon = test system: HCT-15 colon
HCC-2998 colon = test system: HCC-2998 colon
HL-60(TB) leukemia = test system: HL-60(TB) leukemia
RXF 393 renal = test system: RXF 393 renal
M14 melanoma = test system: M14 melanoma
DMS 273 small cell lung = test system: DMS 273 small cell lung
ACHN renal = test system: ACHN renal
OVCAR-8 ovarian = test system: OVCAR-8 ovarian
TK-10 renal = test system: TK-10 renal
A549 NSCLC = test system: A549 NSCLC
SR leukemia = test system: SR leukemia
UO-31 renal = test system: UO-31 renal
SK-MEL-5 melanoma = test system: SK-MEL-5 melanoma
MALME-3M melanoma = test system: MALME-3M melanoma
NCI-H23 lung = test system: NCI-H23 lung
SN12C renal = test system: SN12C renal
A498 renal = test system: A498 renal
NCI-H460 lung = test system: NCI-H460 lung
UACC-62 melanoma = test system: UACC-62 melanoma
HT29 colon = test system: HT29 colon
LXFL 529 NSCLC = test system: LXFL 529 NSCLC
SNB-75 CNS = test system: SNB-75 CNS
CCRF-CEM leukemia = test system: CCRF-CEM leukemia
HOP-62 NSCLC = test system: HOP-62 NSCLC
HCT-116 colon = test system: HCT-116 colon
UACC-257 melanoma = test system: UACC-257 melanoma
SW-620 colon = test system: SW-620 colon
SK-MEL-28 melanoma = test system: SK-MEL-28 melanoma
RXF-631 renal = test system: RXF-631 renal
SF-295 CNS = test system: SF-295 CNS
DLD-1 colon = test system: DLD-1 colon
XF 498 CNS = test system: XF 498 CNS
K-562 leukemia = test system: K-562 leukemia
DMS 114 small cell lung = test system: DMS 114 small cell lung
SK-MEL-2 melanoma = test system: SK-MEL-2 melanoma
MOLT-4 leukemia = test system: MOLT-4 leukemia
U251 CNS = test system: U251 CNS
OVCAR-4 ovarian = test system: OVCAR-4 ovarian
EKVX NSCLC = test system: EKVX NSCLC
LOX IMVI melanoma = test system: LOX IMVI melanoma
KM20L2 colon = test system: KM20L2 colon
786-0 renal = test system: 786-0 renal
SNB-19 CNS = test system: SNB-19 CNS
IGROV1 ovarian = test system: IGROV1 ovarian
OVCAR-3 ovarian = test system: OVCAR-3 ovarian
SF-268 CNS = test system: SF-268 CNS
KM12 colon = test system: KM12 colon
OVCAR-5 ovarian = test system: OVCAR-5 ovarian
NCI-H522 lung = test system: NCI-H522 lung
M19-MEL melanoma = test system: M19-MEL melanoma
HOP-92 NSCLC = test system: HOP-92 NSCLC
CAKI-1 renal = test system: CAKI-1 renal
NCI-H226 lung = test system: NCI-H226 lung
SK-OV-3 ovarian = test system: SK-OV-3 ovarian

Structure (SMILES): CC(C)c1cccc(C(C)C)c1NC(=S)N=Nc1cc(C(C)(C)C)c(O)c(C(C)(C)C)c1
- TGI (COLO 205 colon): 44.6 µM
- TGI (SF-539 CNS): 39 µM
- TGI (RPMI-8226 leukemia): 85.9 µM
- TGI (HCT-15 colon): > 100 µM
- TGI (HCC-2998 colon): 54.3 µM
- TGI (HL-60(TB) leukemia): 65.9 µM
- TGI (RXF 393 renal): 30.9 µM
- TGI (M14 melanoma): 84.3 µM
- TGI (DMS 273 small cell lung): > 100 µM
- TGI (ACHN renal): > 100 µM
- TGI (OVCAR-8 ovarian): 38 µM
- TGI (TK-10 renal): 71.5 µM
- TGI (A549 NSCLC): 45.6 µM
- TGI (SR leukemia): > 100 µM
- TGI (UO-31 renal): 74.7 µM
- TGI (SK-MEL-5 melanoma): 37.3 µM
- TGI (MALME-3M melanoma): 63.8 µM
- TGI (NCI-H23 lung): 31.8 µM
- TGI (SN12C renal): 52.4 µM
- TGI (A498 renal): 34.4 µM
- TGI (NCI-H460 lung): 67.8 µM
- TGI (UACC-62 melanoma): 50 µM
- TGI (HT29 colon): > 100 µM
- TGI (LXFL 529 NSCLC): > 100 µM
- TGI (SNB-75 CNS): 58 µM
- TGI (CCRF-CEM leukemia): 66.6 µM
- TGI (HOP-62 NSCLC): 32.3 µM
- TGI (HCT-116 colon): 13.1 µM
- TGI (UACC-257 melanoma): 43.7 µM
- TGI (SW-620 colon): 78 µM
- TGI (SK-MEL-28 melanoma): 95.7 µM
- TGI (RXF-631 renal): > 100 µM
- TGI (SF-295 CNS): > 100 µM
- TGI (DLD-1 colon): > 100 µM
- TGI (XF 498 CNS): 43.3 µM
- TGI (K-562 leukemia): 78.8 µM
- TGI (DMS 114 small cell lung): 55.5 µM
- TGI (SK-MEL-2 melanoma): 35.8 µM
- TGI (MOLT-4 leukemia): > 100 µM
- TGI (U251 CNS): 30.1 µM
- TGI (OVCAR-4 ovarian): 43.1 µM
- TGI (EKVX NSCLC): > 100 µM
- TGI (LOX IMVI melanoma): 34.2 µM
- TGI (KM20L2 colon): 58.6 µM
- TGI (786-0 renal): 35.7 µM
- TGI (SNB-19 CNS): 48.5 µM
- TGI (IGROV1 ovarian): 62.6 µM
- TGI (OVCAR-3 ovarian): 52.2 µM
- TGI (SF-268 CNS): > 100 µM

Structure (SMILES): CC(C)OP(=O)(OC(C)C)C([CH2][Sn]([CH3])([CH3])[Cl])P(=O)(OC(C)C)OC(C)C
- GI50 (KM12 colon): 13.4 µM
- TGI (KM12 colon): 41.9 µM
- GI50 (COLO 205 colon): 15.2 µM
- TGI (COLO 205 colon): 29.1 µM
- GI50 (SF-539 CNS): 24.2 µM
- TGI (SF-539 CNS): 51.5 µM
- GI50 (RPMI-8226 leukemia): 15.2 µM
- TGI (RPMI-8226 leukemia): 35.1 µM
- GI50 (HCT-15 colon): 20.2 µM
- TGI (HCT-15 colon): 47.4 µM
- GI50 (HCC-2998 colon): 22.6 µM
- TGI (HCC-2998 colon): 40.3 µM
- GI50 (HL-60(TB) leukemia): 4.56 µM
- TGI (HL-60(TB) leukemia): 18.2 µM
- GI50 (M14 melanoma): 16.4 µM
- TGI (M14 melanoma): 31.4 µM
- GI50 (DMS 273 small cell lung): 19.8 µM
- TGI (DMS 273 small cell lung): 53.5 µM
- GI50 (OVCAR-5 ovarian): 31.5 µM
- TGI (OVCAR-5 ovarian): > 100 µM
- GI50 (ACHN renal): 31 µM
- TGI (ACHN renal): > 100 µM
- GI50 (OVCAR-8 ovarian): 30.2 µM
- TGI (OVCAR-8 ovarian): > 100 µM
- GI50 (TK-10 renal): 23.2 µM
- TGI (TK-10 renal): 69.9 µM
- GI50 (A549 NSCLC): 27.7 µM
- TGI (A549 NSCLC): > 100 µM
- GI50 (UO-31 renal): 19.9 µM
- TGI (UO-31 renal): 43.2 µM
- GI50 (SK-MEL-5 melanoma): 16.5 µM
- TGI (SK-MEL-5 melanoma): 31 µM
- GI50 (MALME-3M melanoma): 16.3 µM
- TGI (MALME-3M melanoma): 33.2 µM
- GI50 (NCI-H23 lung): 18.1 µM
- TGI (NCI-H23 lung): 44.3 µM
- GI50 (SN12C renal): 27.9 µM
- TGI (SN12C renal): > 100 µM
- GI50 (A498 renal): 19.3 µM
- TGI (A498 renal): > 100 µM
- GI50 (NCI-H522 lung): 6.6 µM
- TGI (NCI-H522 lung): 23.5 µM
- GI50 (NCI-H460 lung): 16 µM
- TGI (NCI-H460 lung): 36.3 µM
- GI50 (UACC-62 melanoma): 14.1 µM
- TGI (UACC-62 melanoma): 32.9 µM
- GI50 (HT29 colon): 22.1 µM
- TGI (HT29 colon): 79.2 µM
- GI50 (LXFL 529 NSCLC): 15 µM
- TGI (LXFL 529 NSCLC): 29.4 µM
- GI50 (SNB-75 CNS): 19.3 µM
- TGI (SNB-75 CNS): 43.3 µM
- GI50 (CCRF-CEM leukemia): 20.7 µM
- TGI (CCRF-CEM leukemia): 64.9 µM
- GI50 (HOP-62 NSCLC): 20.9 µM
- TGI (HOP-62 NSCLC): 40.4 µM
- GI50 (HCT-116 colon): 19.7 µM
- TGI (HCT-116 colon): 42.8 µM
- GI50 (UACC-257 melanoma): 21.3 µM
- TGI (UACC-257 melanoma): 65.3 µM
- GI50 (SW-620 colon): 20.2 µM
- TGI (SW-620 colon): 42.5 µM
- GI50 (SK-MEL-28 melanoma): 21.3 µM
- TGI (SK-MEL-28 melanoma): 74.9 µM
- GI50 (RXF-631 renal): 38.3 µM
- TGI (RXF-631 renal): > 100 µM
- GI50 (SF-295 CNS): 19.7 µM
- TGI (SF-295 CNS): 48.7 µM
- GI50 (DLD-1 colon): 36.8 µM
- TGI (DLD-1 colon): > 100 µM
- GI50 (M19-MEL melanoma): 19.8 µM
- TGI (M19-MEL melanoma): 49.9 µM
- GI50 (XF 498 CNS): 14.5 µM
- TGI (XF 498 CNS): 35.1 µM
- GI50 (HOP-92 NSCLC): 13.7 µM
- TGI (HOP-92 NSCLC): 34.4 µM
- GI50 (K-562 leukemia): 25.3 µM
- TGI (K-562 leukemia): > 100 µM
- GI50 (DMS 114 small cell lung): 21.9 µM
- TGI (DMS 114 small cell lung): 67 µM
- GI50 (SK-MEL-2 melanoma): 15.6 µM
- TGI (SK-MEL-2 melanoma): 29.9 µM
- GI50 (CAKI-1 renal): 19.9 µM
- TGI (CAKI-1 renal): 55.7 µM
- GI50 (MOLT-4 leukemia): 18.2 µM
- TGI (MOLT-4 leukemia): 46.2 µM
- GI50 (U251 CNS): 20.4 µM
- TGI (U251 CNS): 46.3 µM
- GI50 (OVCAR-4 ovarian): 26.8 µM
- TGI (OVCAR-4 ovarian): > 100 µM
- GI50 (EKVX NSCLC): 30.3 µM
- TGI (EKVX NSCLC): 98 µM
- GI50 (KM20L2 colon): 17.5 µM
- TGI (KM20L2 colon): 34.6 µM
- GI50 (786-0 renal): 16.7 µM
- TGI (786-0 renal): 33.1 µM
- GI50 (SNB-19 CNS): 30.2 µM
- TGI (SNB-19 CNS): 86.9 µM
- GI50 (NCI-H226 lung): 21.2 µM
- TGI (NCI-H226 lung): 41.3 µM
- GI50 (IGROV1 ovarian): 24.5 µM
- TGI (IGROV1 ovarian): 97.4 µM
- GI50 (OVCAR-3 ovarian): 20.2 µM
- TGI (OVCAR-3 ovarian): 72.5 µM
- GI50 (SK-OV-3 ovarian): 25.5 µM
- TGI (SK-OV-3 ovarian): 64 µM
